One assay deals with T1, mTORC1 (Homo sapiens, UniProt P42345).
T1 construct: endogenous in cells; host or cells: HeLa
As to the kind of experiment: mTORC1 inhibition, immunoblot of S6K Thr389 phosphorylation in HeLa cells. As to conditions: at 40 µM, FIG. 2A. Type of assay: cell-based. The method, then: HeLa cells were cultured in DMEM (Dulbesco's Modified Eagles Media) containing 10% FBS, penicillin (100 units/ml), and streptomycin (100 μg/ml) at 37° C. in a 5% CO2 incubator. Culture was started by seeding 4×10^5 cells in a 100 mm culture dish, and subcultured every 3 days.
Immunoblot analysis was performed by the following method. SDS-PAGE-developed proteins were electroblotted and transferred and a PVDF membrane was blocked by shaking for 1 hour in a TBS-T buffer (20 mM Tris, 137 mM NaCl, 0.1% Tween 20) containing 5% skim milk. The membrane was repeatedly washed with a TBS-T buffer three times for 5 minutes, and reacted with a first antibody diluted in a TBS-T buffer containing 5% skim milk or 5% BSA overnight at 4° C. Thereafter, the membrane was repeatedly washed with a TBS-T buffer three times for 5 minutes, and reacted with a second antibody diluted in a TBS-T buffer containing 5% skim milk for 30 minutes at room temperature. The membrane was repeatedly washed with a TBS-T buffer containing 5% skim milk five times for 5 minutes, and then protein bands bound to the second antibody were detected by a chemiluminescence method. […]
Background: Immunoblotting shows a protein as a band on a membrane.

Assay [1] has as its system primary cultured hippocampal neurons. Description: LC3-eGFP puncta formation assay (autophagy promotion). The conditions noted are these: rapamycin and HN-1703 at 0.1 μM and 0.5 μM respectively, 12 hours; FIG. 3A. The format is cell-based, rat. The method, then: Primary neurons culture was performed from the hippocampus of rat (SD, Orient Bio) embryonic 16-day (E16) embryos. The left and right hemispheres of the extracted brain were separated using sterile tweezers under a dissecting microscope, the meninges were peeled off, the hippocampus was cut with No. 55 tweezers, and neural progenitor cells were mechanically dissolved in a Ca^2+/Mg^2+-free HBSS (Invitrogen) solution by pipetting with a pasteur pipette (Falcon, 354647). Undissolved tissues or vascular cells were settled, and then a supernatant was taken to measure the cell number and the isolated cells were seeded at 19,000 cells/cm^2 in a 35 mm culture dish coated with poly-L-ornithine (sigma, P3655) and fibronectin (sigma, F4759). The cells were cultured using a serum-free N2 medium (growth medium) added with 10 ng/mL bFGF (Invitrogen) in a 5% CO2 incubator, and the culture medium was replaced after 6 hours and after 24 hours. After 2 days, when the cells proliferated twice or more, subculture was performed.
After 3 days of the primary neural progenitor cell culture, a process of subculturing with 0.05% trypsin was repeated twice, and DNA electroporation or transfection was performed before seeding. […]
The number of cell nuclei labeled with DAPI and the number of cells expressing green fluorescence by overlapping LC3-eGFP expression and DAPI labeling were measured. The number of eGFP-LC3 puncta was measured per cell, and the signal intensity of puncta was measured using a confocal laser microscope program. […]
The autophagy promoting effect of HN-1703 in neurons differentiated by culturing hippocampal neural progenitor cells from rat embryos (E16) was evaluated by performing an LC3-eGFP puncta formation assay. The neural progenitor cells into which an LC3-eGFP recombinant gene was introduced by electroporation were differentiated into neurons, treated with rapamycin and HN-1703 at concentrations of 0.1 μM and 0.5 μM for 12 hours, respectively, and the puncta of LC3-GFP were scanned with a confocal laser microscope (Zeiss, LSM800) to measure the fluorescence intensity of LC3-eGFP and the number of puncta, and the results were illustrated in FIG. 3. Specifically, FIG. 3A illustrates confocal scanning micrographs of LC3-eGFP puncta formation after treated primary cultured hippocampal neurons overexpressing an LC3-eGFP fusion protein with HN-1703, and quantifying the number and fluorescence intensity of LC3-eGFP puncta per cell, and FIG. 3B illustrates a result of LC3-II turnover analysis.

Structures are written as SMILES.

For `COc1cc(OC)c2c(=O)c3cc4c(cc3oc2c1)OCO4` [HN-1703, 7,9-dimethoxy-10H-[1,3]dioxolo[4,5-b]xanthen-10-one], at mTORC1, the “inhibition of mTORC1 activity (S6K Thr389 phosphorylation) compared to the control group” value is listed as 48%. In assay [1], the “increase of the number of LC3-eGFP puncta compared to a control group” value was ≥ 85% and the “increase of the signal intensity of LC3-eGFP puncta compared to the control group” value was ≥ 45%.
